Assay results reported in patent EP1156045A1, “AMIDE DERIVATIVES AND DRUG COMPOSITIONS” (Nippon Shinyaku Co., Ltd., priority 1999, dated 2000).
Counter-ions that a name gives are not always drawn.

Tests used:
[1] = test system: promoter region of the TGF-β1 gene; assay: Inhibitory effect on expression of TGF-β mRNA (TGF-β1 promoter-luciferase reporter, TNF-α stimulation); assay type: cell-based; settings: mink lung epithelial cells (Mv1Lu); drug 1 µg/ml, TNF-α 10 ng/ml; 24 hours; luciferase activity; read-out: Rate of inhibition (%)
Procedure: The inhibitory effect of the compounds of the present invention on TGF-β production was evaluated by measuring the inhibition of TGF-β mRNA expression according to the method described in J. Biol. Chem., 264, 402-408 (1989). A chimera plasmid was produced in which the promoter region of the TGF-β1 gene was ligated with a luciferase gene. This plasmid was then transfected into mink lung epithelial cells (Mv1Lu) to produce a cell line stably expressing the luciferase gene under the control of the TGF-β1 promoter. The drug (1 µg/ml) and TNF-α (10 ng/ml) were added to Mv1Lu cells, which were then cultured for 24 hours. Then the activity of luciferase in the cells was measured by a chemiluminescence method. The rate of inhibition was calculated from the following formula, the rate of inhibition being defined as 100% when the measured luciferase activity was equal to that in the absence of stimulation with TNF-α: Rate of inhibition = (Le-Lf)/(Le-Ld) × 100 [formula] In this formula, Ld represents the luciferase activity in the absence of TNF-α, Le represents the luciferase activity in the presence of TNF-α, and Lf represents the luciferase activity in the presence of TNF-α and the test drug.

TGF-β = assay: Antagonistic action against TGF-β (type I procollagen α2 promoter-luciferase reporter, TGF-β1 stimulation); assay type: cell-based; settings: mink lung epithelial cells (Mv1Lu); drug 1 µg/ml, TGF-β1 10 ng/ml; 24 hours; luciferase activity; read-out: Rate of inhibition (%)
Procedure: The test was carried out according to the method described in J. Clin. Invest., 86, 1489-1495 (1990) and J. Biol. Chem. 265, 13351-13356 (1990). A chimera plasmid was produced in which the promoter region of type I procollagen α2 gene was ligated with a luciferase gene. This plasmid was then transfected into mink lung epithelial cells (Mv1Lu) to produce a cell line stably expressing the luciferase gene under the control of the […]. The drug (1 µg/ml) and TGF-β1 (10 ng/ml) were added to Mv1Lu cells, which were then cultured for 24 hours. Then, the activity of luciferase in the cells was measured by a chemiluminescence method. The rate of inhibition was calculated from the following formula, the rate of inhibition being defined as 100% when the measured luciferase activity was equal to that in the absence of stimulation with TGF-β1: Rate of inhibition = (Lb-Lc)/(Lb-La) × 100 [formula] In this formula, La represents the luciferase activity in the absence of stimulation with TGF-β1, Lb represents the luciferase activity in the presence of stimulation with TGF-β1, and Lc represents the luciferase activity in the presence of TGF-β1 and the test drug.

TGF-β1 = assay: Inhibition of TGF-β production (TGF-β1 released into the medium, ELISA); assay type: cell-based; settings: human mesangial cells immortalized with SV40, cultured 4 days, TGF-β1 released during the last 2 days; for inhibition at 1 µg/mL: Mesangial cell, read-out: Rate of inhibition (%)
Procedure: The test was carried out according to the method described in Jpn. J. Pharmacol, 60, 91-96 (1992). That is, human mesangial cells immortalized with SV40 were cultured in 24-well plates, and then the medium was changed to a serum-free medium. The test drugs were added at concentrations of 1 µg/ml or 10 µg/ml, and the cells were cultured for 4 days. The amounts of TGF-β1 (a major type of-TGF-β) released into the medium during the last 2 days were quantified by ELISA kits. The rate of inhibition (%) was calculated from the following formula: Rate of inhibition = (Ta-Tb)/Ta × 100 [formula] In this formula, Ta represents the amount of TGF-β1 released into the medium in the absence of the test drug, and Tb represents the amount of TGF-β1 released into the medium in the presence of the test drug.

Acute toxicity = assay type: in vivo; settings: mice; orally, 300 mg/kg suspension; observed for a week after administration
Procedure: Each of the compounds in Examples 1, 5, 6, 33, 34, 39, and 48 was administered.

| Compound | inhibition at 1 µg/mL [1] [%] | inhibition at 1 µg/mL (TGF-β) [%] | Rate of inhibition (%) (TGF-β1; concentration 10 µg/ml) | deaths (Acute toxicity) | inhibition at 1 µg/mL (TGF-β1; concentration 1 µg/ml) [%] | Rate of inhibition (%) (TGF-β1; concentration 1 µg/ml) |
| --- | --- | --- | --- | --- | --- | --- |
| CC(=O)Nc1ccc(N2CCCN(C(=O)c3c(-c4ccccc4)n(C)c4ccc(C)cc34)CC2)nc1 [Example 180, 1-(1,5-Dimethyl-2-phenylindol-3-ylcarbonyl)-4-(5-acetylamino-2-pyridyl)homopiperazine] | 25.5 | 48.3 | – | – | – | – |
| Cc1ccc2c(c1)c(C(=O)N1CCCN(c3ccc([N+](=O)[O-])cn3)CC1)c(-c1ccccc1)n2C [Example 129, 1-(1,5-Dimethyl-2-phenylindol-3-ylcarbonyl)-4-(5-nitro-2 pyridyl)homopiperazine] | – | 64.3 | – | – | – | – |
| Cc1ccc(=O)n(-c2ccccc2)c1 [Perfenidone, reference compound] | – | – | 1.7 | – | – | – |
| Cl.Cn1c(-c2ccccc2)c(C(=O)N2CCN(c3ccc([N+](=O)[O-])cn3)CC2)c2ccccc21 [Example 48, 1-(1-Methyl-2-phenylindol-3-ylcarbonyl)-4-(5-nitro-2-pyridyl)-piperazine hydrochloride] | 74.7 | 63.7 | – | No deaths were observed | – | – |
| CCN(CC)S(=O)(=O)c1ccc(N2CCCN(C(=O)c3c(-c4ccccc4)n(C)c4ccc(C)cc34)CC2)nc1 [Example 183, 1-(1,5-Dimethyl-2-phenylindol-3-ylcarbonyl)-4-(5-diethylamino-sulfonyl-2-pyridyl)homopiperazine] | 46.9 | 79.3 | – | – | – | – |
| Cn1c(-c2ccccc2)c(C(=O)N2CCCN(c3cccnc3)CC2)c2ccccc21 [Example 120, 1-(1-Methyl-2-phenylindol-3-ylcarbonyl)-4-(3-pyridyl)homopiperazine hydrochloride] | 27.7 | 44.9 | – | – | – | – |
| Cc1ccc2c(c1)c(C(=O)N1CCCN(c3ccc(NS(C)(=O)=O)cn3)CC1)c(-c1ccccc1)n2C [Example 174, 1-(1,5-Dimethyl-2-phenylindol-3-ylcarbonyl)-4-(5-methane-sulfonylamino-2-pyridyl)homopiperazine] | 24.8 | 49.8 | – | – | – | – |
| Cc1ccc2c(c1)c(C(=O)N1CCCN(c3ccccn3)CC1)c(-c1ccccc1)n2C [Example 119, 1-(1,5-Dimethyl-2-phenylindol-3-ylcarbonyl)-4-(2-pyridyl)-homopiperazine hydrochloride] | 39.2 | 53.8 | – | – | – | – |
| Cn1c(-c2ccccc2)c(C(=O)N2CCCN(c3ccccn3)CC2)c2ccccc21 [Example 118, 1-(1-Methyl-2-phenylindol-3-ylcarbonyl)-4-(2-pyridyl)-homopiperazine dihydrochloride] | 48.8 | 51.8 | – | – | – | – |
| Cc1ccc2c(c1)c(C(=O)N1CCN(c3ccccn3)CC1)c(-c1ccccc1)n2C.Cl [Example 1, 1-(1,5-Dimethyl-2-phenylindol-3-ylcarbonyl)-4-(2-pyridyl)piperazine hydrochloride] | – | 31.2 | – | No deaths were observed | – | – |
| COC(=O)c1ccc(N2CCCN(C(=O)c3c(-c4ccccc4)n(C)c4ccc(C)cc34)CC2)nc1 [Example 178, 1-(1,5-Dimethyl-2-phenylindol-3-ylcarbonyl)-4-(5-carbomethoxy-2-pyridyl)-homopiperazine] | 43 | 102 | – | – | – | – |
| Cc1ccc2c(c1)c(C(=O)N1CCN(c3ccc([N+](=O)[O-])cn3)CC1)c(-c1ccccc1)n2C [Example 58, 1-(1,5-Dimethyl-2-phenylindol-3-ylcarbonyl)-4-(5-nitro-2-pyridyl)-piperazine hydrochloride] | 30.2 | 34.8 | – | – | 27.6 | – |
| Cc1ccc2c(c1)c(C(=O)N1CCCN(c3cccnc3)CC1)c(-c1ccccc1)n2C [Example 121, 1-(1,5-Dimethyl-2-phenylindol-3-ylcarbonyl)-4-(3-pyridyl)-homopiperazine hydrochloride] | 40.6 | 59 | – | – | – | – |
| Cc1ccc2c(c1)c(C(=O)N[C@H]1C[C@H]3CC[C@@H](C1)N3C)c(-c1ccccc1)n2C.Cl [Example 117, N-(endo-8-Methyl-8-azabicyclo[3.2.1]octa-3-yl)-1,5-dimethyl-2-phenylindole-3-carboxamide hydrochloride] | – | – | – | – | – | 47.4 |
| Cc1ccc2c(C(=O)N[C@@H]3C[C@H]4CC[C@@H](C3)N4C)c(-c3ccccc3)n(C)c2c1.Cl [Example 63, N-(endo-8-Methyl-8-azabicyclo[3.2.1]octa-3-yl)-1,6-dimethyl-2-phenylindole-3-carboxamide hydrochloride] | – | – | – | – | – | 40.7 |
| Cc1cc2c(C(=O)N3CCN(c4ccncc4)CC3)c(-c3ccccc3)n(C)c2cc1C.Cl [Example 39, 1-(1,5,6-Trimethyl-2-phenylindol-3-ylcarbonyl)-4-(4-pyridyl)-piperazine hydrochloride] | 27.4 | 52.4 | – | No deaths were observed | – | – |
| Cn1c(-c2ccccc2)c(C(=O)N2CC[N+]([O-])(c3ccccn3)CC2)c2ccccc21 [Example 5, 1-(1-Methyl-2-phenylindol-3-ylcarbonyl)-4-(2-pyridyl)piperazine-4-oxide] | 28.2 | 27.4 | – | No deaths were observed | 20.9 | – |
| Cc1ccc2c(c1)c(C(=O)N1CCN(c3cccnc3)CC1)c(-c1ccccc1)n2C.Cl.Cl [Example 33, 1-(1,5-Dimethyl-2-phenylindol-3-ylcarbonyl)-4-(3-pyridyl)piperazine dihydrochloride] | 43.2 | 50.6 | – | No deaths were observed | – | – |
| Cl.Cn1c(-c2ccccc2)c(C(=O)N2CCN(c3ccccn3)CC2)c2ccccc21 [Example 6, 1-(1-Methyl-2-phenylindol-3-ylcarbonyl)-4-(2-pyridyl)piperazine hydrochloride] | 50.1 | 44.6 | – | No deaths were observed | 30.2 | – |
| COc1ccc2c(c1)c(C(=O)NC1CC3CCC(C1)N3C)c(-c1ccccc1)n2C.Cl (stereo not drawn) [Example 61, N-(endo-8-Methyl-8-azabicyclo[3.2.1]octa-3-yl)-5-methoxy-1-methyl-2-phenylindole-3-carboxamide hydrochloride] | – | – | – | – | – | 69.7 |
| Cc1ccc2c(c1)c(C(=O)N1CCN(c3ccncc3)CC1)c(-c1ccccc1)n2C.Cl [Example 34, 1-(1,5-Dimethyl-2-phenylindol-3-ylcarbonyl)-4-(4-pyridyl)piperazine hydrochloride] | – | 33.8 | – | No deaths were observed | – | – |
